The results in this text go back to article PMC11012124, “Synthesis of Novel Triazine-Based Chalcones and 8,9-dihydro-7H-pyrimido[4,5-b][1,4]diazepines as Potential Leads in the Search of Anticancer, Antibacterial and Antifungal Agents” (International Journal of Molecular Sciences, 2024).

Converted amounts (≈) assume the structure as drawn. Some results are limits rather than exact numbers.

One data set has as its system A. flavus (ATCC 9170). As to the kind of experiment: Antifungal broth microdilution (CLSI). The format is cell-based. Particulars: ATCC9170; Afl: Aspergillus flavus. In a few lines:
(§1)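 Broth microdilution followed CLSI M27-A3 for yeasts and the filamentous-fungi reference method, in 200 μL final volume with DMSO-matched growth controls. Plates were incubated in the dark and humid at 30 °C for a time suited to each fungus; testing was done in triplicate.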

The subject of data set [1] is A. fumigatus (ATCC 26934). As to the kind of experiment: Antifungal broth microdilution (CLSI). Particulars: ATCC26934; Afu: Aspergillus fumigatus. The format is cell-based. In short, it runs like this:
as §1
For orientation: Dilution methods test growth across graded concentrations, often in twofold steps.

The test system of data set [2] is Candida albicans (ATCC 10231). Nature of the data set: Antifungal broth microdilution (CLSI). Particulars: ATCC10231; Ca: Candida albicans. The format is cell-based. In short, it runs like this:
as §1

In data set [3] the test system is Cryptococcus neoformans (ATCC 32264). Nature of the data set: Antifungal broth microdilution (CLSI). Particulars: ATCC32264; Cn: Cryptococcus neoformans. The format is cell-based. In short, it runs like this:
as §1

The test system of data set [4] is Trichophyton mentagrophytes (CCC 202-2000). As to the kind of experiment: Antifungal broth microdilution (CLSI). The format is cell-based. Particulars: Tm: Trichophyton mentagrophytes. In a few lines:
as §1

Data set [5] concerns Trichophyton rubrum (CCC 134-2000). Nature of the data set: Antifungal broth microdilution (CLSI). The format is cell-based. Particulars: Tr: Trichophyton rubrum. In short, it runs like this:
as §1

The next data set has as its system Galleria mellonella. Nature of the data set: Toxicity in the Galleria mellonella model. Particulars: G. mellonella larvae, at the higher doses.
For data set [6], the system named is human red blood cells (huRBC). Nature of the data set: Hemolytic activity, spectrophotometric. The format is cell-based. To be noted: 200 μg/mL, 24 h, 37 °C.
For the next data set, the system named is MOLT-4. Particulars: MOLT-4, 48 h.
The test system of a further data set is U251. Particulars: U251, 48 h.
In the next data set the test system is LOX IMVI. To be noted: 48 h; for GI50: LOX IMVI.
In a further data set the test system is SF-539. To be noted: human, 48 h.
For a further data set, the system named is SR. To be noted: 48 h.
A further data set concerns CCRF-CEM. To be noted: 48 h.
A further data set relates to K-562. Particulars: K-562, 48 h.
The next data set concerns S. aureus ATCC 43300. As to the kind of experiment: Antibacterial MIC, microdilution. The format is cell-based. To be noted: Staphylococcus aureus; S. aureus ATCC 43300 (MRSA).

Experimental for Galleria mellonella: G mellonella larvae were cultivated in the laboratory and healthy, beige larvae weighing 150–200 mg, were selected for toxicity assays.

In the case of `CN(C)c1nc(NCCNS(=O)(=O)c2ccc(C(=O)/C=C/c3ccc(Cl)cc3)cc2)nc(N2CCOCC2)n1` [23e], the MIC (in general, the least concentration at which growth counts as inhibited) against A. flavus (ATCC 9170) is > 250 µg/mL; in data set [1], > 250 µg/mL; in data set [2], 250 µg/mL (≈ 437 µM); in [3] it was 250 µg/mL (≈ 437 µM); in data set [4], > 250 µg/mL; in data set [5], 125 µg/mL (≈ 218 µM).

Take `CN(C)c1nc(NCCNS(=O)(=O)c2ccc(C3=Nc4c(N)nc(N)nc4NC(c4ccc(C(F)(F)F)cc4)C3)cc2)nc(N2CCOCC2)n1` (stereo not drawn) [30g]: the MIC against A. flavus (ATCC 9170) is > 250 µg/mL; in data set [1], > 250 µg/mL; in data set [2], 125 µg/mL (≈ 172 µM); in data set [3], 125 µg/mL (≈ 172 µM); in data set [4] it was > 250 µg/mL; in data set [5] it was 250 µg/mL (≈ 344 µM). Also, in the data set with Galleria mellonella, the mortality (as a rule, the share of the test organisms that died) was ≤ 25%.

With `Cc1ccc(C2CC(c3ccc(Nc4nc(NCCO)nc(Nc5ccc(Cl)cc5)n4)cc3)=Nc3c(N)nc(N)nc3N2)cc1` (stereo not drawn) [33b], the “% Hemolysis” value in data set [6] was 100%.

As for `COc1cc(/C=C/C(=O)c2cc(OC)c(OC)c(OC)c2)ccc1Oc1nc(Nc2ccc(F)cc2)nc(N(C)C)n1` [21d], the MIC with A. flavus (ATCC 9170) was > 250 µg/mL; in data set [1], > 250 µg/mL; in data set [2] it was > 250 µg/mL; in data set [3], > 250 µg/mL; in [4] it was > 250 µg/mL; in data set [5], 125 µg/mL (≈ 217 µM). Further, the GI50 (usually the concentration giving 50% growth inhibition) with MOLT-4 was determined as 470 nM; in the data set on U251, 500 nM; in the data set with LOX IMVI, 480 nM. In addition, the mortality in the data set on Galleria mellonella is recorded as ≤ 25%.

For the compound `COc1ccc(/C=C/C(=O)c2ccc(S(=O)(=O)NCCNc3nc(Nc4ccc(F)cc4)nc(N(C)C)n3)cc2)cc1` [24c], the MIC was > 250 µg/mL in the data set on A. flavus (ATCC 9170); > 250 µg/mL in [1]; > 250 µg/mL in data set [2]; > 250 µg/mL in [3]; > 250 µg/mL in data set [4]; 125 µg/mL (≈ 211 µM) in data set [5].

For the compound `COc1cc(/C=C/C(=O)c2ccc(S(=O)(=O)NCCNc3nc(Nc4ccc(F)cc4)nc(N(C)C)n3)cc2)cc(OC)c1OC` [24d], the CC50 stood at 5620 nM with SF-539 and 5930 nM in the data set with LOX IMVI (human).

For `COc1cc(/C=C/C(=O)c2cc(OC)c(OC)c(OC)c2)ccc1Oc1nc(NCCO)nc(N2CCOCC2)n1` [20d], the GI50 with SR is 780 nM; with LOX IMVI, 640 nM.

Consider `COc1cc(/C=C/C(=O)c2ccccc2)ccc1Oc1nc(Nc2ccc(F)cc2)nc(N(C)C)n1` [21a], for which the mortality in the data set with Galleria mellonella is ≤ 25%.

With `CN(C)c1nc(NCCNS(=O)(=O)c2ccc(C3=Nc4c(N)nc(N)nc4NC(c4ccc(C(F)(F)F)cc4)C3)cc2)nc(Nc2ccc(F)cc2)n1` (stereo not drawn) [31g], the MIC is > 250 µg/mL in the data set on A. flavus (ATCC 9170); 62.5 µg/mL (≈ 83.1 µM) in [1]; > 250 µg/mL in [2]; > 250 µg/mL in [3]; 62.5 µg/mL (≈ 83.1 µM) in data set [4]; 250 µg/mL (≈ 333 µM) in data set [5].

As to `CN(C)c1nc(NCCNS(=O)(=O)c2ccc(C(=O)/C=C/c3ccc(Cl)cc3)cc2)nc(Nc2ccc(F)cc2)n1` [24e], the MIC was > 250 µg/mL with A. flavus (ATCC 9170); > 250 µg/mL in [1]; > 250 µg/mL in data set [2]; > 250 µg/mL in data set [3]; 125 µg/mL (≈ 210 µM) in data set [4]; > 250 µg/mL in data set [5].

Consider `Nc1nc(N)c2c(n1)NC(c1ccc(F)cc1)CC(c1ccc(Nc3nc(NCCO)nc(Nc4ccc(Cl)cc4)n3)cc1)=N2` (stereo not drawn) [33f], for which the GI50 in the data set on CCRF-CEM was found to be 750 nM; in the data set on K-562 it was 490 nM; in the data set on MOLT-4, 530 nM; in the data set on SR it was 670 nM.

As to `Nc1nc(N)c2c(n1)NC(c1ccc(C(F)(F)F)cc1)CC(c1ccc(Nc3nc(NCCO)nc(Nc4ccc(Cl)cc4)n3)cc1)=N2` (stereo not drawn) [33g], the minimal inhibitory concentration (MIC) with S. aureus ATCC 43300 was found to be 31.2 µg/mL (≈ 46.2 µM). The values for the GI50 in the data set with K-562 and in the data set with MOLT-4 were 640 nM and 890 nM, respectively.

As for `COc1cc(C2CC(c3ccc(Cl)cc3)=Nc3c(N)nc(N)nc3N2)ccc1Oc1nc(Nc2ccc(F)cc2)nc(N(C)C)n1` (stereo not drawn) [29e], the MIC against A. flavus (ATCC 9170) is > 250 µg/mL; in data set [1], > 250 µg/mL; in data set [2] it was > 250 µg/mL; in [3] it was > 250 µg/mL; in data set [4] it was > 250 µg/mL; in data set [5], 62.5 µg/mL (≈ 97.3 µM).
